{"source": "patent US20240358668A1", "about": "“METHODS AND CO[…] AM[…] CARD[…] USING (R)-2-AMINO-3-PH[…]” (AXSOME THERAPEUTICS, INC., priority 2021, published 2024)", "key": {"[1]": {"system": "adults with EDS associated with OSA", "assay": "Long-term OLE trial in OSA: vital signs, antihypertensive medication use, AEs of hypertension/increased BP", "type": "in vivo, human", "procedure": "An exploratory analysis of data from one 12-week randomized, controlled trial (Schweitzer P K, et al. Am J Respir Crit Care Med. 2019; 199(11):1421-31) and 1 long-term open-label extension (OLE) trial in adults with EDS (Epworth Sleepiness Scale score ≥10) associated with OSA (Malhotra A, et al. Sleep. 2020; 43(2):zsz220) was carried out. Participants with current/prior use of primary OSA therapy (positive airway pressure [PAP], oral pressure therapy, oral appliance, or upper airway stimulation) were eligible, regardless of the level of adherence to primary OSA therapy; participants who had not attempted to use primary OSA therapy were excluded. Adherence to primary OSA therapy was defined as PAP use ≥4 hours/night on ≥70% of nights/week, historical report (with investigator concurrence) of oral appliance use on ≥70% of nights, or effective surgical intervention. Nonadherence to primary OSA therapy was defined as device use at a level lower than specific above, no device use at all, or surgical intervention deemed no longer effective. Participants received placebo or solriamfetol 37.5 (12-week trial only), 75, 150, or 300 mg/day for 12 weeks (12-week trial) or ≤40 weeks (OLE trial). Vital signs, antihypertensive medication use, and adverse events (AEs) were monitored throughout the studies. Baseline demographics, CV comorbidities, and concomitant medications, the percentage of participants who initiated antihypertensive medication use during treatment, and the incidence of and discontinuations due to AEs of hypertension/increased BP were summarized for the safety population (participants who received ≥1 dose of study medication)."}, "[2]": {"system": "participants with narcolepsy", "assay": "Study 14-002, 12-week randomized controlled trial: 24-hour ABPM at screening and week 8", "type": "in vivo, human", "conditions": "for effect on percentage of participants with a non-dipping BP profile: screening to week 8, any dose studied", "procedure": "Solriamfetol is a dopamine and norepinephrine reuptake inhibitor indicated to improve wakefulness in adult patients with excessive daytime sleepiness associated with narcolepsy (75-150 mg/d) or obstructive sleep apnea (37.5-150 mg/d). Previous studies reported small mean increases in blood pressure (BP); however, the time course of these effects has not been evaluated. […] These analyses evaluated the effects of solriamfetol treatment on BP using 24-hour ambulatory blood pressure monitoring (ABPM) and on the percentage of narcolepsy patients with a non-dipping BP profile.\nTwenty-four-hour ABPM was conducted at baseline and week 8 in a 12-week randomized controlled trial in participants with narcolepsy (n=236). Blood pressure was collected every 30 minutes."}}, "note": "Marks after values point to notes of the source that are not given here.", "data": [{"compound": "NC(=O)OC[C@H](N)Cc1ccccc1", "note": "[Solriamfetol, (R)-2-amino-3-phenylpropyl carbamate]", "values": [{"measurement": "change in DBP from baseline to week 40", "setting": "[1]; OLE", "result": 0.29, "unit": "mm Hg"}, {"measurement": "change in HR from baseline to week 40", "setting": "[1]; OLE", "result": "−1.94", "unit": "bpm"}, {"measurement": "change in SBP from baseline to week 40", "setting": "[1]; OLE", "result": "−0.49", "unit": "mm Hg"}, {"measurement": "total participants with AEs of hypertension/increased BP", "setting": "[1]; OLE", "result": 22, "unit": "participants"}, {"measurement": "serious AE of cerebrovascular accident", "setting": "[1]; OLE trial", "result": 1}, {"measurement": "Discontinuation due to AE of HTN/increased BP", "setting": "[1]; OLE, 75 mg", "result": "1 (0.2)^d n (%)"}, {"measurement": "Initiated anti-HTN", "setting": "[1]; OLE, 75 mg", "result": "3 (6.1) n (%)"}, {"measurement": "AE of HTN/increased BP", "setting": "[1]; OLE, 75 mg, % of participants that ever received the dose level (n = 417)", "result": "4 (1.0) n (%)"}, {"measurement": "Discontinuation due to AE of HTN/increased BP, (%)", "setting": "[1]; OLE, 150 mg", "result": "(0.2)^d %"}, {"measurement": "Initiated anti-HTN", "setting": "[1]; OLE, 150 mg", "result": "2 (1.4) n (%)"}, {"measurement": "AE of HTN/increased BP, (%)", "setting": "[1]; OLE, 150 mg, % of participants that ever received the dose level (n = 402)", "result": "(1.5) %"}, {"measurement": "Discontinuation due to AE of HTN/increased BP, (%)", "setting": "[1]; OLE, 300 mg", "result": "(0.3)^e %"}, {"measurement": "Initiated anti-HTN", "setting": "[1]; OLE, 300 mg", "result": "3 (1.3) n (%)"}, {"measurement": "AE of HTN/increased BP, (%)", "setting": "[1]; OLE, 300 mg, % of participants that ever received the dose level (n = 326)", "result": "(3.7) %"}, {"measurement": "Mean Change in DBP on ABPM from Screening to Week 8, Mean (SD)", "setting": "[2]; 75 mg", "result": "1.4 (5.13) mmHg"}, {"measurement": "Mean Change in HR on ABPM from Screening to Week 8, Mean (SD)", "setting": "[2]; 75 mg", "result": "1.0 (7.95) bpm"}, {"measurement": "Mean Change in SBP on ABPM from Screening to Week 8, Mean (SD)", "setting": "[2]; 75 mg", "result": "1.8 (6.53) mmHg"}, {"measurement": "Mean Change in DBP on ABPM from Screening to Week 8, Mean (SD)", "setting": "[2]; 75 mg, listed as solriamfetol", "result": 1.4, "unit": "mmHg"}, {"measurement": "Mean Change in SBP on ABPM from Screening to Week 8, Mean (SD)", "setting": "[2]; 75 mg, listed as solriamfetol", "result": 1.8, "unit": "mmHg"}, {"measurement": "Mean Change in DBP on ABPM from Screening to Week 8, Mean (SD)", "setting": "[2]; 150 mg", "result": "0.4 (4.46) mmHg"}, {"measurement": "Mean Change in HR on ABPM from Screening to Week 8, Mean (SD)", "setting": "[2]; 150 mg", "result": "0.7 (7.12) bpm"}, {"measurement": "Mean Change in SBP on ABPM from Screening to Week 8, Mean (SD)", "setting": "[2]; 150 mg", "result": "−0.5 (5.51) mmHg"}, {"measurement": "Mean Change in DBP on ABPM from Screening to Week 8, Mean (SD)", "setting": "[2]; 150 mg, listed as solriamfetol", "result": 0.4, "unit": "mmHg"}, {"measurement": "Mean Change in SBP on ABPM from Screening to Week 8, Mean (SD)", "setting": "[2]; 150 mg, listed as solriamfetol", "result": "−0.5", "unit": "mmHg"}, {"measurement": "Mean Change in DBP on ABPM from Screening to Week 8, Mean (SD)", "setting": "[2]; 300 mg", "result": "3.0 (4.97) mmHg"}, {"measurement": "Mean Change in HR on ABPM from Screening to Week 8, Mean (SD)", "setting": "[2]; 300 mg", "result": "5.3 (7.55) bpm"}, {"measurement": "Mean Change in SBP on ABPM from Screening to Week 8, Mean (SD)", "setting": "[2]; 300 mg", "result": "2.4 (5.97) mmHg"}, {"measurement": "Mean Change in DBP on ABPM from Screening to Week 8, Mean (SD)", "setting": "[2]; 300 mg, listed as solriamfetol", "result": 3.0, "unit": "mmHg"}, {"measurement": "Mean Change in SBP on ABPM from Screening to Week 8, Mean (SD)", "setting": "[2]; 300 mg, listed as solriamfetol", "result": 2.4, "unit": "mmHg"}, {"measurement": "percentage of non-dippers (<10% decrease in MAP during sleep)", "setting": "[2]; combined solriamfetol, week 8 (baseline 48%)", "result": 39, "unit": "%"}, {"measurement": "time course of effects on BP (24-hour ABPM)", "setting": "[2]; highest approved dose of 150 mg/d", "result": "transient across the day"}, {"measurement": "effect on percentage of participants with a non-dipping BP profile", "setting": "[2]", "result": "not observed to have an increase"}, {"measurement": "effect on percentage of participants with a non-dipping BP profile", "setting": "[2]; listed as solriamfetol", "result": "did not increase"}]}]}
